Where two headings read alike, the source gives them in different places.
Columns and labels:
Assay type in all cases: physicochemical
[1] = Solubility of Formula I Form I in solvents, gravimetric analysis of mother liquors (Example 1); details: organic solvent or mixture, thermodynamic from solid
Method: The solubility was calculated by gravimetric analysis after evaporation of the mother liquors collected.

[2] = Solubility of Form I in aqueous media by HPLC (Example 4); details: thermodynamic from solid, 22° C.
Method: (§1) The vials were shaken. After 1 hr, a sample (˜0.5 ml) was removed via syringe, and filtered through a syringe filter (0.2 micron) into a second vial. 200 μl of each solution was then transferred into an HPLC vial and made up to 1 ml by adding 800 μl of diluent. These samples were analyzed directly by HPLC, and the response was outside the linearity range. Therefore a second dilution was performed, taking 0.1 ml of each sample and making up to 2 ml with diluent. The samples were re-analyzed by HPLC. Then after shaking the suspensions for 18 hours in total, a second sample was taken as above. All samples were then diluted and analyzed by HPLC, as above. The temperature was noted (22° C.), and no gelling was observed.

[3] = Solubility of Form I in organic solvents by HPLC (Example 4); details: 22 °C, thermodynamic from solid
Method: as §1
The above procedure was repeated but using 8 different organic solvents in place of the aqueous media (analysis only after 18 hrs). Solvents used were acetonitrile, diethyl ether, ethanol, ethyl acetate, isopropanol, methanol, heptane and THF. All solvents gave suspensions at 100 mg/ml, except methanol which dissolved at 100 mg in 0.3 ml. […] These experiments were sampled once after 18 hours of slurrying.

[4] = Thermodynamic aqueous solubility; details: water, 25 °C, water, thermodynamic from solid, water, 25° C., 24 hours; at the pH of the next column; read-out: Aqueous solubility mg/mL free form
Method: The suspension was equilibrated at 25° C. for 24 hours then the pH was measured. The suspension was then filtered through a glass fibre C filter. […] Different volumes of the standard, diluted and undiluted sample solutions were injected.

[5] = Gravimetric vapour sorption (GVS)
Method: The Gravimetric sorption isotherms were obtained using a Hiden IGASorp moisture sorption analyser, controlled by CFRSorp software. The sample temperature was maintained at 25° C. by a Huber re-circulating water bath. The humidity was controlled by mixing streams of dry and wet nitrogen, with a total flow rate of 250 ml/min. The relative humidity (RH) was measured by a calibrated Vaisala RH probe (dynamic range of 0-95% RH), located near the sample. The weight change, (mass relaxation) of the sample as a function of % RH was constantly monitored by the microbalance (accuracy 0.001 mg). Typically 10-20 mg of sample was placed in a tared mesh stainless steel basket at room temperature. The sample was loaded and unloaded at 40% RH and 25° C. (typical room conditions). The standard isotherm was performed at 25° C. at 10% RH intervals over a 0-90% RH range.

[6] = Stability to humidity on storage (form by XRPD)
[7] = Long-term and accelerated stability studies of Form I (Example 6)
Method: The storage conditions include the long-term storage condition of 25±2° C./60±5% RH, the intermediate storage condition of 30±2° C./65±5% RH, and the accelerated storage condition of 40±±2° C./75±±5% RH.

[8] = aqueous media, aqueous buffer, Aqueous pH 6.8
[9] = aqueous media, simulated gastric fluid, Aqueous pH 1.2
[10] = aqueous medium, aqueous buffer, Aqueous pH 4
[11] = aqueous medium, aqueous buffer, Aqueous pH 5

COc1cc2c(cc1OC)[C@H]1C[C@@H](OC(=O)[C@@H](N)C(C)C)[C@H](CC(C)C)CN1CC2.Cc1ccc(S(=O)(=O)O)cc1.Cc1ccc(S(=O)(=O)O)cc1 [Form I, (S)-(2R,3R,11bR)-3-isobutyl-9,10-dimethoxy-2,3,4,6,7,11b-hexahydro-1H-pyrido[2,1-a]isoquinolin-2-yl 2-amino-3-methylbutanoate di(4-methylbenzenesulfonate)]
solubility ([1]; 55 °C, MeOH (boiling point 65), 10° C. below reflux, read-out: Solubility at high temperature): > 250 mg/mL
solubility ([1]; 56 °C, THF (boiling point 66), 10° C. below reflux, read-out: Solubility at high temperature): 6 mg/mL
solubility ([1]; 67 °C, Ethyl Acetate (boiling point 77), 10° C. below reflux, read-out: Solubility at high temperature): 2 mg/mL
solubility ([1]; 68 °C, EtOH (boiling point 78), 10° C. below reflux, read-out: Solubility at high temperature): 212 mg/mL
solubility ([1]; 70 °C, MEK (boiling point 80), 10° C. below reflux, read-out: Solubility at high temperature): 4 mg/mL
solubility ([1]; 71 °C, Acetonitrile (boiling point 81), 10° C. below reflux, read-out: Solubility at high temperature): 48 mg/mL
solubility ([1]; 79 °C, IPA (boiling point 89), 10° C. below reflux, read-out: Solubility at high temperature): 22 mg/mL
solubility ([1]; 79 °C, Isopropyl Acetate (boiling point 89), 10° C. below reflux, read-out: Solubility at high temperature): 4 mg/mL
solubility ([1]; 88 °C, 1-propanol (boiling point 98), 10° C. below reflux, read-out: Solubility at high temperature): 160 mg/mL
solubility ([1]; 107 °C, MIBK (boiling point 117), 10° C. below reflux, read-out: Solubility at high temperature): 5 mg/mL
solubility ([1]; 1-propanol, 5° C., read-out: Solubility at 5° C. temperature): 8 mg/mL
solubility ([1]; Acetone, 5° C., read-out: Solubility at 5° C. temperature): 5 mg/mL
solubility ([1]; Acetonitrile, 5° C., read-out: Solubility at 5° C. temperature): 17 mg/mL
solubility ([1]; EtOH, 5° C., read-out: Solubility at 5° C. temperature): 24 mg/mL
solubility ([1]; Ethyl Acetate, 5° C., read-out: Solubility at 5° C. temperature): 1 mg/mL
solubility ([1]; IPA, 5° C., read-out: Solubility at 5° C. temperature): 5 mg/mL
solubility ([1]; Isopropyl Acetate, 5° C., read-out: Solubility at 5° C. temperature): 4 mg/mL
solubility ([1]; MEK, 5° C., read-out: Solubility at 5° C. temperature): 3 mg/mL
solubility ([1]; MIBK, 5° C., read-out: Solubility at 5° C. temperature): 6 mg/mL
solubility ([1]; MeOH, 5° C., read-out: Solubility at 5° C. temperature): > 250 mg/mL
solubility ([1]; THF, 5° C., read-out: Solubility at 5° C. temperature): 4 mg/mL
solubility at 1 h ([2]; aqueous media, aqueous buffer, Aqueous pH 3): 28.4 mg/mL
solubility at 1 h [2, 8]: 34 mg/mL
solubility at 18 h [2, 8]: 35.4 mg/mL
solubility at 1 h [2, 9]: 31.6 mg/mL
solubility at 18 h [2, 9]: 33.2 mg/mL
solubility at 18 h ([2]; aqueous medium, aqueous buffer, Aqueous pH 3): 28 mg/mL
solubility at 1 h [2, 10]: 28.1 mg/mL
solubility at 18 h [2, 10]: 27.8 mg/mL
solubility at 1 h [2, 11]: 18.6 mg/mL
solubility at 18 h [2, 11]: 27.9 mg/mL
solubility at 18 h ([3]; organic solvent or mixture, Acetonitrile): 1.36 mg/mL
solubility at 18 h ([3]; organic solvent or mixture, Diethyl ether): 0.01 mg/mL
solubility at 18 h ([3]; organic solvent or mixture, Ethanol): 35.5 mg/mL
solubility at 18 h ([3]; organic solvent or mixture, Ethyl acetate): 0.04 mg/mL
solubility at 18 h ([3]; organic solvent or mixture, Heptane): 0.003 mg/mL
solubility at 18 h ([3]; organic solvent or mixture, Isopropanol): 1.15 mg/mL
solubility at 18 h ([3]; organic solvent or mixture, Methanol): 481 mg/mL
solubility at 18 h ([3]; organic solvent or mixture, THF): 0.05 mg/mL
solubility at 18 h ([3]; Water): 28.2 mg/mL
solubility at 24 h [4]: 15 mg/mL
Stability to humidity GVS uptake ([5]; 25° C.): 1.0%
GVS mass increase ([5]; relative humidity from about 0% to about 95%, di(4-methylbenzenesulfonate)): less than 1%
Stability to humidity 25° C./92% RH ([6]; 25° C./92% RH): unchanged
Stability to humidity 40° C./75% RH ([6]; 40° C./75% RH): unchanged
Stability on storage ([7]; about 25° C. and about 60% relative humidity for about 24 months): stable
Stability on storage ([7]; about 40° C. and about 75% relative humidity for about 6 months): stable
Stability on storage ([7]; accelerated storage condition 40° C./75% RH, 3 months): chemical and physical stability
Stability on storage ([7]; long-term storage condition 25° C./60% RH, up to 3 months): chemical and physical stability

— US10844058B2, “Valbenazine salts and polymorphs thereof” (Neurocrine Biosciences, Inc., priority 2015, dated 2020)
